Results from paper PMC3635668 (Analytical chemistry, 2013).
Read-outs that look alike come from different tables or passages of the source. Non-standard residues stand in square brackets, D forms with d. No end group written: not given here. Sta = CC(C)C[C@H](N)[C@@H](O)CC(=O)O

Tests used:
BACE1 [1] = molecular target: BACE1 (Homo sapiens, UniProt P56817); experiment: SPR antibody-amplified BACE1 cleavage inhibition assay, immobilized APP; type: biochemical; details: for BACE1 inhibition, two-channel screening (in words): 30 nM compound 1 (CH1) or 2 μM compound 2 (CH2), Figure 2B
BACE1 [2] = details: read-out: IC50 (MS); determined by MS; cited from earlier work
BACE1 [3] = details: read-out: IC50 (ELISA); measured from ELISA; cited from earlier work
[4] = 10 nM BACE1, SA-coated PEG chip

Sequence of BACE1 (Homo sapiens, UniProt P56817) (P56817 46-501): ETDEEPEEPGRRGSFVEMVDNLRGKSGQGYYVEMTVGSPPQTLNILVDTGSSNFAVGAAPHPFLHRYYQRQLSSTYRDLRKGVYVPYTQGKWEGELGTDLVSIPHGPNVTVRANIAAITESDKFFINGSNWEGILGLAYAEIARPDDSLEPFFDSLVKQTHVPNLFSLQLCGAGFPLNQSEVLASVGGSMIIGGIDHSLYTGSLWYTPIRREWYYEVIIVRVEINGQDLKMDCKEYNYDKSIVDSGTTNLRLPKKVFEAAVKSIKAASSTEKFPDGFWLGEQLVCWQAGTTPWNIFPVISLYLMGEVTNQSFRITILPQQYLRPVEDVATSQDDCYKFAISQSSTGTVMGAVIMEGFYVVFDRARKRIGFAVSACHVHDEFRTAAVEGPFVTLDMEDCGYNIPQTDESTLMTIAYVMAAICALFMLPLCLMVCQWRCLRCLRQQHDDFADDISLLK

Row | Substance | BACE1 inhibition, two-channel screening (in words) (BACE1 [1]; [4]) | BACE1 inhibition (in words) (BACE1 [1]; 2 μM compound 2, 10 nM BACE1, Ni-NTA chip, Figure 4 cycle 4) | IC50 (BACE1 [2]) [nM] | IC50 (BACE1 [3]) [nM] | relative potency compound 1 vs compound 2 (in words) (BACE1 [1]; 30 nM compound 1 vs 2 μM compound 2, Figure 2B) | BACE1 inhibition (in words) (BACE1 [1]; 40 nM compound, 10 nM BACE1, SA-coated PEG chip, Figure 2A curve c)
1 | Ph-LL-4,5-dehydro-L-CHO [Compound 2] | exhibited inhibition of the BACE1 activity | partially inhibits BACE1 | 3000 | – | – | –
2 | KTEEISEVN-Sta-VAEF (KTEEISEVN[Sta]VAEF) [Compound 1] | exhibited inhibition of the BACE1 activity | – | – | 30 | much more potent inhibitor | insufficient to completely halt the peptide cleavage by BACE1
